Measurements as given in the supplement of paper PMC10307832.

Columns and labels:
Test in all cases: relative viability (nuclei count vs DMSO), 5 days (fraction); higher = more cells survive
201T = tested on: 201T
Procedure, shortened: (§1)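 One day after seeding in 1536-well plates, lung cancer cell lines were dosed by pin tool. Dosing was either single-drug or a fixed anchor-drug dose plus five library-drug doses (not always all listed) in √10 steps. After 5 days, nuclei were stained in one fix-and-stain step and counted on 4× images, and relative viability is the nuclei count of treated wells over that of vehicle wells, given as the median of duplicate plates.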

HCC-44 = tested on: HCC-44
Procedure, shortened: as §1

HCC-15 = tested on: HCC-15
Procedure, shortened: as §1

EKVX = tested on: EKVX
Procedure, shortened: as §1

BEN = tested on: BEN
Procedure, shortened: as §1

A-427 = tested on: A-427
Procedure, shortened: as §1

SW 900 = tested on: SW 900
Procedure, shortened: as §1

NCI-H441 = tested on: NCI-H441
Procedure, shortened: as §1

HARA = tested on: HARA
Procedure, shortened: as §1

NCI-H1792 = tested on: NCI-H1792
Procedure, shortened: as §1

NCI-H650 = tested on: NCI-H650
Procedure, shortened: as §1

NCI-H596 = tested on: NCI-H596
Procedure, shortened: as §1

NCI-H23 = tested on: NCI-H23
Procedure, shortened: as §1

NCI-H358 = tested on: NCI-H358
Procedure, shortened: as §1

NCI-H2342 = tested on: NCI-H2342
Procedure, shortened: as §1

HCC-827 = tested on: HCC-827
Procedure, shortened: as §1

NCI-H838 = tested on: NCI-H838
Procedure, shortened: as §1

NCI-H1437 = tested on: NCI-H1437
Procedure, shortened: as §1

NCI-H1975 = tested on: NCI-H1975
Procedure, shortened: as §1

Structure (SMILES): Nc1ccn([C@@H]2O[C@H](CO)[C@@H](O)[C@@H]2O)c(=O)n1 [Cytarabine] + NC(=O)Nc1cc(-c2cccc(F)c2)sc1C(=O)N[C@H]1CCCNC1 [AZD7762] (partner 0.2 µM)
- relative viability (201T; first compound 0.005 µM): 0.635
- relative viability (201T; first compound 0.01581 µM): 0.596
- relative viability (201T; first compound 0.05 µM): 0.653
- relative viability (201T; first compound 0.1581 µM): 0.342
- relative viability (201T; first compound 0.5 µM): 0.265
- relative viability (HCC-44; first compound 0.005 µM): 1.07
- relative viability (HCC-44; first compound 0.01581 µM): 0.916
- relative viability (HCC-44; first compound 0.05 µM): 0.476
- relative viability (HCC-44; first compound 0.1581 µM): 0.332
- relative viability (HCC-44; first compound 0.5 µM): 0.249
- relative viability (HCC-15; first compound 0.005 µM): 1.11
- relative viability (HCC-15; first compound 0.01581 µM): 1.52
- relative viability (HCC-15; first compound 0.05 µM): 1.45
- relative viability (HCC-15; first compound 0.1581 µM): 1.06
- relative viability (HCC-15; first compound 0.5 µM): 0.913
- relative viability (EKVX; first compound 0.005 µM): 0.697
- relative viability (EKVX; first compound 0.01581 µM): 0.676
- relative viability (EKVX; first compound 0.05 µM): 0.329
- relative viability (EKVX; first compound 0.5 µM): 0.67
- relative viability (BEN; first compound 0.005 µM): 0.588
- relative viability (BEN; first compound 0.01581 µM): 0.425
- relative viability (BEN; first compound 0.05 µM): 0.296
- relative viability (BEN; first compound 0.1581 µM): 0.259
- relative viability (BEN; first compound 0.5 µM): 0.241
- relative viability (A-427; first compound 0.005 µM): 0.343
- relative viability (A-427; first compound 0.01581 µM): 0.246
- relative viability (A-427; first compound 0.05 µM): 0.218
- relative viability (A-427; first compound 0.1581 µM): 0.184
- relative viability (A-427; first compound 0.5 µM): 0.184
- relative viability (SW 900; first compound 0.005 µM): 0.741
- relative viability (SW 900; first compound 0.01581 µM): 0.546
- relative viability (SW 900; first compound 0.05 µM): 0.451
- relative viability (SW 900; first compound 0.1581 µM): 0.191
- relative viability (SW 900; first compound 0.5 µM): 0.16
- relative viability (NCI-H441; first compound 0.005 µM): 0.982
- relative viability (NCI-H441; first compound 0.01581 µM): 0.912
- relative viability (NCI-H441; first compound 0.05 µM): 0.814
- relative viability (NCI-H441; first compound 0.1581 µM): 0.306
- relative viability (NCI-H441; first compound 0.5 µM): 0.211
- relative viability (HARA; first compound 0.005 µM): 0.298
- relative viability (HARA; first compound 0.01581 µM): 0.211
- relative viability (HARA; first compound 0.05 µM): 0.176
- relative viability (HARA; first compound 0.1581 µM): 0.157
- relative viability (HARA; first compound 0.5 µM): 0.171
- relative viability (NCI-H1792; first compound 0.01581 µM): 0.39
- relative viability (NCI-H1792; first compound 0.05 µM): 0.275
- relative viability (NCI-H1792; first compound 0.1581 µM): 0.0675
- relative viability (NCI-H1792; first compound 0.5 µM): 0.0488
- relative viability (NCI-H650; first compound 0.005 µM): 0.843
- relative viability (NCI-H650; first compound 0.01581 µM): 0.26
- relative viability (NCI-H650; first compound 0.05 µM): 0.19
- relative viability (NCI-H650; first compound 0.1581 µM): 0.146
- relative viability (NCI-H650; first compound 0.5 µM): 0.162
- relative viability (NCI-H596; first compound 0.005 µM): 1
- relative viability (NCI-H596; first compound 0.01581 µM): 1.01
- relative viability (NCI-H596; first compound 0.05 µM): 0.787
- relative viability (NCI-H596; first compound 0.1581 µM): 0.419
- relative viability (NCI-H596; first compound 0.5 µM): 0.343
- relative viability (NCI-H23; first compound 0.005 µM): 0.227
- relative viability (NCI-H23; first compound 0.01581 µM): 0.171
- relative viability (NCI-H23; first compound 0.05 µM): 0.202
- relative viability (NCI-H23; first compound 0.1581 µM): 0.126
- relative viability (NCI-H23; first compound 0.5 µM): 0.134
- relative viability (NCI-H358; first compound 0.005 µM): 0.419
- relative viability (NCI-H358; first compound 0.01581 µM): 0.229
- relative viability (NCI-H358; first compound 0.05 µM): 0.208
- relative viability (NCI-H358; first compound 0.1581 µM): 0.221
- relative viability (NCI-H358; first compound 0.5 µM): 0.182
- relative viability (NCI-H2342; first compound 0.005 µM): 0.472
- relative viability (NCI-H2342; first compound 0.01581 µM): 0.385
- relative viability (NCI-H2342; first compound 0.05 µM): 0.397
- relative viability (NCI-H2342; first compound 0.1581 µM): 0.377
- relative viability (NCI-H2342; first compound 0.5 µM): 0.301
- relative viability (HCC-827; first compound 0.005 µM): 0.17
- relative viability (HCC-827; first compound 0.01581 µM): 0.168
- relative viability (HCC-827; first compound 0.05 µM): 0.13
- relative viability (HCC-827; first compound 0.1581 µM): 0.14
- relative viability (HCC-827; first compound 0.5 µM): 0.148
- relative viability (NCI-H838; first compound 0.005 µM): 0.738
- relative viability (NCI-H838; first compound 0.01581 µM): 0.699
- relative viability (NCI-H838; first compound 0.05 µM): 0.665
- relative viability (NCI-H838; first compound 0.1581 µM): 0.652
- relative viability (NCI-H838; first compound 0.5 µM): 0.631
- relative viability (NCI-H1437; first compound 0.005 µM): 1.04
- relative viability (NCI-H1437; first compound 0.01581 µM): 0.549
- relative viability (NCI-H1437; first compound 0.05 µM): 0.321
- relative viability (NCI-H1437; first compound 0.1581 µM): 0.167
- relative viability (NCI-H1437; first compound 0.5 µM): 0.146
- relative viability (NCI-H1975; first compound 0.005 µM): 0.679
- relative viability (NCI-H1975; first compound 0.01581 µM): 0.581
- relative viability (NCI-H1975; first compound 0.05 µM): 0.388
- relative viability (NCI-H1975; first compound 0.1581 µM): 0.321
- relative viability (NCI-H1975; first compound 0.5 µM): 0.234
